*: point of attachment. FITC = O=C1OC2(c3ccc(O)cc3Oc3cc(O)ccc32)c2ccc(NC(=S)*)cc21; AEEA = NCCOCCOCC(=O)O
Tests used:
c-KIT2 G4 [1] = assay: CD melting, thermal stabilization of c-KIT2 G4; type: binding, human; conditions: for ΔT1/2 of c-KIT2 G4: CD melting at 264 nm, 2 mol equiv of peptide with respect to G4, 2 μM DNA, 5 mM KH2PO4/K2HPO4 pH 7.0, 20 mM KCl, average of three, T1/2 c-KIT2 alone 59.5°C; for ΔΔT1/2, change in c-KIT2 G4-stabilizing properties with respect to Myb^397–415: CD melting, 2 mol equiv peptide, difference to Myb^397–415
From the text: The buffer baseline was subtracted from each spectrum.

c-KIT2 G4 [2] = assay: Isothermal titration calorimetry (ITC) with c-KIT2 G4; type: binding, human; conditions: ITC at 25°C, triplicate; for Ka: c-KIT2 G4 16–20 μM, peptide 280–400 μM, 5 mM KH2PO4/K2HPO4, 20 mM KCl, pH 7.0; for Kd: c-KIT2 G4, Kd = 1/Ka
Procedure: ITC experiments were conducted at 25°C using a nano-ITC Low Volume calorimeter (TA instruments, Lindon, UT, USA). DNA and peptide solutions were prepared using the same batch of buffer (5 mM KH2PO4/K2HPO4 buffer containing 20 mM KCl, pH 7.0) to prevent differences in buffer composition and pH. Each titration consisted of 25 injections of a 2 μl peptide solution (280–400 μM) sequentially injected using a computer-controlled 50 μl syringe, into the calorimetric vessel (190 μl) containing the oligonucleotide (16–20 μM). A spacing of 300 s between each injection was applied to allow the system to reach the equilibrium. The heat generated by peptide dilution was assessed in a control experiment by injecting the peptide solution into the buffer (Supplementary Figure S30). All measurements were performed in triplicate. Subsequently, the interaction heat for each injection was calculated considering the correction for the heat of peptide dilution. The corrected heat values were plotted as a function of the molar ratio to provide binding isotherms. The isotherms were fitted with a multiple-sites binding model using the NanoAnalyze software (TA instruments) provided with the instrument. This analysis provided the equilibrium binding constant (Ka), binding enthalpy (ΔH°), and stoichiometry of interaction (n). The equilibrium dissociation constant (Kd), Gibbs free-energy change and entropy change were determined using the following relationships: Kd = 1/Ka, ΔG° = -RT ln Ka (R = 8.314 J mol^−1 K^−1, T = 298.15 K), and TΔS° = ΔH° – ΔG°.

U2OS cells = assay: Viability assay (crystal violet), U2OS; type: cell-based; conditions: for Impact on cancer cell viability, peptides in native form: unconjugated peptides
Procedure: U2OS, HCT116 and MDA-MB-231 cells were purchased from the ATCC and grown in Dulbecco modified Eagle's medium (DMEM; EuroClone, Milan, Italy; ECM0728L) supplemented with 10% Fetal Bovine Serum (FBS, ThermoFisher Scientific/Gibco, Waltham, MA, USA; 10270-106), 2 mM L-glutamine and antibiotics in a humidified incubator at 37°C with 5% CO2 and atmospheric O2 concentration. Cell lines were authenticated and tested to be mycoplasma-free.
U2OS, HCT116, and MDA-MB-231 cells were seeded in 24-well plates at a density of 1 × 10^4, 20 × 10^3 and 12 × 10^3 for each well, respectively. After 24 h, cells were treated with the indicated peptides and incubated at 37°C for additional 72 h. Upon treatment completion, cell medium was removed, the wells were washed twice in phosphate-buffered saline (PBS) and fixed with 4% formaldehyde for 15 min at room temperature (RT). After washing, 500 μl of crystal violet staining solution (Sigma-Aldrich, St. Louis, MO, USA) was added to each well and incubated for 30 min at RT. Finally, the plates were rinsed twice with water, air-dried and cell pellets were dissolved in 400 μl of a 10% aqueous solution of acetic acid. In total, 200 μl of each sample was transferred to a 96-well plate, and the optical density was measured at 570 nm (OD570) with an ELISA reader (Thermo Scientific, Waltham, MA, USA). The average absorbance in each condition was used to calculate the viability expressed as a percentage of treated vs untreated conditions (CTR).

c-KIT2 G4 [3] = assay: Microscale thermophoresis (MST) binding to c-KIT2 G4; design: species or system human; conditions: 25°C, 20 nM FITC-labelled peptide, DNA serial dilution, 5 mM KH2PO4/K2HPO4 pH 7.0, 20 mM KCl, 0.1% Tween, 5% DMSO
Procedure: MST experiments were conducted using a Monolith NT.115 instrument (NanoTemper Technologies, Munich, Germany) at 25°C with medium MST power settings. […] DNA samples were also diluted using the same buffer supplemented with 0.1% Tween. During MST experiments, the concentration of the labelled peptide was kept constant at 20 nM, while a serial dilution of the investigated DNA molecules (ranging from 10 or 20 μM) was prepared and mixed with the peptide solution in a 1:1 volume ratio. All the samples, with a final concentration of 5% DMSO, were loaded into standard capillaries (NanoTemper Technologies) for MST measurements. Data analysis was carried out using the MO.Affinity Analysis (v2.3) software provided with the instrument.

FITC-Myb397-415 [4] = target: T1, FITC-Myb397-415 (UniProt P11938); assay: MST; conditions: 2'-F-ANA-guanosine at bold G; positions lost in the text; 5 mM KH2PO4/K2HPO4 pH 7.0, 20 mM KCl (LiCl for c-MYC stock), 25 C; MST with 0.1% Tween and 5% DMSO, 20 nM FITC-peptide
T1 sequence: NHTGNSIRHRFRVYLSKRL

FITC-Myb397-415 [5] = target: T2, FITC-Myb397-415 (UniProt P11938 397-415); assay: microscale thermophoresis; 5 mM KH2PO4/K2HPO4, 20 mM KCl (c-MYC stock annealed in LiCl), pH 7.0; MST 25 C with 0.1% Tween, 5% DMSO, 20 nM labelled peptide, DNA titrated (stocks from 10 or 20 uM, mixed 1:1); ITC 25 C; conditions: tags: N-terminal FITC-O2Oc, C-terminal NH2
T2 chain: {FITC-AEEA}-NHTGNSIRHRFRVYLSKRL-NH2

Myb397-415 = target: T3, Myb397-415 (UniProt P11938 397-415); assay: isothermal titration calorimetry; 5 mM KH2PO4/K2HPO4, 20 mM KCl (c-MYC stock annealed in LiCl), pH 7.0; MST 25 C with 0.1% Tween, 5% DMSO, 20 nM labelled peptide, DNA titrated (stocks from 10 or 20 uM, mixed 1:1); ITC 25 C; conditions: tags: N-acetyl; C-terminal NH2; chain copies: 3; parallel G4
T3 chain: NHTGNSIRHRFRVYLSKRL

FITC-Myb397-415 [6] = target: T2, FITC-Myb397-415; assay: MST; 20 mM K+; 5 mM KH2PO4/K2HPO4 pH 7.0, 20 mM KCl (LiCl for c-MYC stock), 25 C; MST with 0.1% Tween and 5% DMSO, 20 nM FITC-peptide; conditions: hybrid G4

With AHTGNSIRHRFRVYLSKRL [Myb^A397] the “ΔT1/2 of c-KIT2 G4” value (c-KIT2 G4 [1]) was 18.0 (±0.2) °C.

Ac-NHTANSIRHRFRVYLSKRL-NH2 [Myb^A400] was tested, and the Ka (c-KIT2 G4 [2]) was 7.3 (±1.3) ×10^6 M^−1, the Kd (c-KIT2 G4 [2]) was 137 nM and the “Impact on cancer cell viability, peptides in native form” value (U2OS cells; 72 h treatment) was “unable to significantly impact cancer cells viability”. For the same molecule, the “ΔT1/2 of c-KIT2 G4” value (c-KIT2 G4 [1]) was 21.1 (±0.4) °C, the “ΔΔT1/2, change in c-KIT2 G4-stabilizing properties with respect to Myb^397–415” value (c-KIT2 G4 [1]) was 3.8 °C and the Kd (c-KIT2 G4 [3]) was ~170 nM.

With Ac-NHTGNSIRHRFRVYLAKRL-NH2 [Myb^A412] the Ka (c-KIT2 G4 [2]) was 5.3 (±0.8) ×10^6 M^−1, the Kd (c-KIT2 G4 [2]) was 187 nM and the “Impact on cancer cell viability, peptides in native form” value (U2OS cells; 72 h treatment) was “unable to significantly impact cancer cells viability”. The “ΔT1/2 of c-KIT2 G4” value (c-KIT2 G4 [1]) was 23.3 (±0.2) °C, the “ΔΔT1/2, change in c-KIT2 G4-stabilizing properties with respect to Myb^397–415” value (c-KIT2 G4 [1]) was 6.0 °C and the Kd (c-KIT2 G4 [3]) was ~130 nM.

NATGNSIRHRFRVYLSKRL [Myb^A398] was tested, and the “ΔT1/2 of c-KIT2 G4” value (c-KIT2 G4 [1]) was 19.8 (±0.2) °C.

In the case of NHAGNSIRHRFRVYLSKRL [Myb^A399], the “ΔT1/2 of c-KIT2 G4” value (c-KIT2 G4 [1]) is reported as 18.5 (±0.2) °C.

For NHTGASIRHRFRVYLSKRL [Myb^A401], the “ΔT1/2 of c-KIT2 G4” value (c-KIT2 G4 [1]) was 19.7 (±0.2) °C.

For NHTGNAIRHRFRVYLSKRL [Myb^A402], the “ΔT1/2 of c-KIT2 G4” value (c-KIT2 G4 [1]) was 18.5 (±0.2) °C.

NHTGNSARHRFRVYLSKRL [Myb^A403] was tested, and the “ΔT1/2 of c-KIT2 G4” value (c-KIT2 G4 [1]) was 17.7 (±0.2) °C.

With NHTGNSIAHRFRVYLSKRL [Myb^A404] the “ΔT1/2 of c-KIT2 G4” value (c-KIT2 G4 [1]) was 16.6 (±0.2) °C.

For NHTGNSIRARFRVYLSKRL [Myb^A405], the “ΔT1/2 of c-KIT2 G4” value (c-KIT2 G4 [1]) was 16.0 (±0.2) °C.

NHTGNSIRHAFRVYLSKRL [Myb^A406] was tested, and the “ΔT1/2 of c-KIT2 G4” value (c-KIT2 G4 [1]) was 12.1 (±0.3) °C.

In the case of NHTGNSIRHRARVYLSKRL [Myb^A407], the “ΔT1/2 of c-KIT2 G4” value (c-KIT2 G4 [1]) is reported as 17.8 (±0.2) °C.

For NHTGNSIRHRFAVYLSKRL [Myb^A408], the “ΔT1/2 of c-KIT2 G4” value (c-KIT2 G4 [1]) was 14.0 (±0.6) °C.

For NHTGNSIRHRFRAYLSKRL [Myb^A409], the “ΔT1/2 of c-KIT2 G4” value (c-KIT2 G4 [1]) was 14.7 (±0.6) °C.

NHTGNSIRHRFRVALSKRL [Myb^A410] was tested, and the “ΔT1/2 of c-KIT2 G4” value (c-KIT2 G4 [1]) was 13.6 (±0.2) °C.

For NHTGNSIRHRFRVYASKRL [Myb^A411], the “ΔT1/2 of c-KIT2 G4” value (c-KIT2 G4 [1]) was 19.5 (±0.4) °C.

NHTGNSIRHRFRVYLSARL [Myb^A413] was tested, and the “ΔT1/2 of c-KIT2 G4” value (c-KIT2 G4 [1]) was 10.7 (±0.6) °C.

For NHTGNSIRHRFRVYLSKAL [Myb^A414], the “ΔT1/2 of c-KIT2 G4” value (c-KIT2 G4 [1]) was 10.7 (±0.6) °C.

With NHTGNSIRHRFRVYLSKRA [Myb^A415] the “ΔT1/2 of c-KIT2 G4” value (c-KIT2 G4 [1]) was 17.8 (±0.5) °C.

With “RRRRRRRW-GG-NHTGNSIRHRFRVYLAKRL [R7W-Myb^A412, Myb^A412 N-terminally conjugated to the cell-penetrating peptide R7W via a glycine–glycine spacer]” the “Inhibition of tumour cell growth compared with the other R7W-conjugated peptides” value (U2OS cells; 72 h, at the 5 μM concentration) was “slightly more effective than the others” and the “Inhibition of tumour cell growth, R7W-conjugated peptides” value (U2OS cells; 72 h treatment) was “essentially to the same extent as R7W-Myb^397–415”.

“RRWWRRWRR-GG-NHTGNSIRHRFRVYLSKRL [R6W3-Myb^397–415]” showed an IC50 (U2OS cells; 72 h treatment, read-out: IC50 (concentration of drug capable of killing 50% of cells)) of ~10000 nM.

With TAGGGTTAGGGTTAGGGTTAGGG [HT-FANA] the Kd (FITC-Myb397-415 [4]) was 140 nM.

B1: c-KIT1 (structured_DNA)
DNA: AGGGAGGGCGCTGGGAGGAGGG
With B1 the Kd (FITC-Myb397-415 [5]; parallel G4) was 340 ± 44 nM.

B2: HER2 (structured_DNA)
DNA: GGAGAAGGAGGAGGTGGAGGAGGAGGG
B2 showed a Kd (Myb397-415) of 100 ± 10 nM and a Kd (FITC-Myb397-415 [5]; parallel G4) of 130 ± 20 nM.

B3: BCL-2 (structured_DNA)
DNA: GGGCGCGGGAGGAATTGGGCGGG
Molecule B3 has a Kd (FITC-Myb397-415 [5]; hybrid G4) of 280 ± 42 nM.

B4: HT2 (structured_DNA)
DNA: TTAGGGTTAGGGTTAGGGTTAGGGTT
Work on B4 yielded a Kd (FITC-Myb397-415 [5]; hybrid G4) of 1180 ± 90 nM and a Kd (FITC-Myb397-415 [6]) of 1180 ± 90 nM.

B5: VEGFR-17T (structured_DNA)
DNA: GGGTACCCGGGTGAGGTGCGGGGT
B5: no binding (FITC-Myb397-415 [5]; hybrid (mixed parallel/antiparallel) G4).

B6: HRAS1 (structured_DNA)
DNA: TCGGGTTGCGGGCGCAGGGCACGGGCG
B6: no binding (FITC-Myb397-415 [5]; antiparallel G4).

B7: LWDLN1 (structured_DNA)
DNA: GGGTTTGGGTTTTGGGAGGG
B7: no binding (FITC-Myb397-415 [5]; antiparallel G4).

B8: c-MYC (structured_DNA)
DNA: TGAGGGTGGGTAGGGTGGGTAA
Work on B8 yielded a Kd (FITC-Myb397-415 [5]; parallel G4) of 430 ± 100 nM.

B9: ds12 (dsDNA)
DNA 1: CGCGAATTCGCG
DNA 2: CGCGAATTCGCG
B9: no binding (FITC-Myb397-415 [5]; blunt, self-complementary).

B10: HT1 (structured_DNA)
DNA: TTGGGTTAGGGTTAGGGTTAGGGA
In the case of B10, the Kd (FITC-Myb397-415 [5]; hybrid G4) is reported as 900 ± 140 nM and the Kd (FITC-Myb397-415 [6]) is reported as 900 ± 140 nM.

Source: publication PMC11229374, “Unlocking the potential of protein-derived peptides to target G-quadruplex DNA: from recognition to anticancer activity” (Nucleic Acids Research, 2024)
